Measurements: PubChem BioAssay AID1259407 (Chemical Carcinogenesis Research Information System (CCRIS), 2018)
Calls of active or inactive are those of the source. The rule behind the calls is not given here.

Tested on: CCRIS mutagenicity, Ames/micronucleus/aberration tests
Assay: CCRIS mutagenicity studies
[1] = Test System: AMES SALMONELLA TYPHIMURIUM, Strain/Indicator: TA104, Metabolic Activation: NONE, Method: PREINCUBATION
[2] = Test System: AMES SALMONELLA TYPHIMURIUM, Strain/Indicator: TA1535, Metabolic Activation: NONE, Method: PREINCUBATION
[3] = Test System: AMES SALMONELLA TYPHIMURIUM, Strain/Indicator: TA1537, Metabolic Activation: NONE, Method: PREINCUBATION
[4] = Test System: AMES SALMONELLA TYPHIMURIUM, Strain/Indicator: TA98, Metabolic Activation: NONE, Method: STANDARD PLATE
[5] = Test System: AMES SALMONELLA TYPHIMURIUM, Strain/Indicator: TA98, Metabolic Activation: RAT, LIVER, S-9, AROCLOR 1254, Method: STANDARD PLATE
[6] = Test System: AMES SALMONELLA TYPHIMURIUM, Strain/Indicator: TA100, Metabolic Activation: NONE, Method: STANDARD PLATE
[7] = Test System: AMES SALMONELLA TYPHIMURIUM, Strain/Indicator: TA100, Metabolic Activation: RAT, LIVER, S-9, AROCLOR 1254, Method: STANDARD PLATE
[8] = Test System: AMES SALMONELLA TYPHIMURIUM, Strain/Indicator: TA98, Metabolic Activation: NONE, Method: PREINCUBATION
[9] = Test System: AMES SALMONELLA TYPHIMURIUM, Strain/Indicator: TA98, Metabolic Activation: RAT, LIVER, S-9, AROCLOR 1254, Method: PREINCUBATION
[10] = Test System: AMES SALMONELLA TYPHIMURIUM, Strain/Indicator: TA100, Metabolic Activation: NONE, Method: PREINCUBATION
[11] = Test System: AMES SALMONELLA TYPHIMURIUM, Strain/Indicator: TA100, Metabolic Activation: RAT, LIVER, S-9, AROCLOR 1254, Method: PREINCUBATION
[12] = Test System: AMES SALMONELLA TYPHIMURIUM, Strain/Indicator: TA102, Metabolic Activation: NONE, Method: PREINCUBATION

For CC(=O)NNc1ccc(CO)cc1, the mutagenic call (Test System: AMES SALMONELLA TYPHIMURIUM, Strain/Indicator: TA104, Metabolic Activation: MUSHROOM TYROSINASE, Method: PREINCUBATION) was “active; positive”, the mutagenic call [1] was “inactive; negative” and the mutagenic call (Test System: AMES SALMONELLA TYPHIMURIUM, Strain/Indicator: TA104, Metabolic Activation: RAT, LIVER, CYTOSOL AND MICROSOMES, AROCLOR 1254, NADPH, Method: PREINCUBATION) was “active; positive”. The mutagenic call (Test System: AMES SALMONELLA TYPHIMURIUM, Strain/Indicator: TA104, Metabolic Activation: RAT, LIVER, CYTOSOL AND MICROSOMES, AROCLOR 1254, Method: PREINCUBATION) was “inactive; negative”, the mutagenic call (Test System: AMES SALMONELLA TYPHIMURIUM, Strain/Indicator: TA104, Metabolic Activation: RAT, LIVER, CYTOSOL, AROCLOR 1254, Method: PREINCUBATION) was “inactive; negative” and the mutagenic call (Test System: AMES SALMONELLA TYPHIMURIUM, Strain/Indicator: TA104, Metabolic Activation: RAT, LIVER, MICROSOMES, AROCLOR 1254, NADPH, Method: PREINCUBATION) was “inactive; negative”. The mutagenic call [2] was “inactive; negative”, the mutagenic call (Test System: AMES SALMONELLA TYPHIMURIUM, Strain/Indicator: TA1535, Metabolic Activation: RAT, LIVER, S-9, AROCLOR 1254, Method: PREINCUBATION) was “inactive; negative” and the mutagenic call [3] was “active; positive”. For the same compound, the mutagenic call (Test System: AMES SALMONELLA TYPHIMURIUM, Strain/Indicator: TA1537, Metabolic Activation: RAT, LIVER, S-9, AROCLOR 1254, Method: PREINCUBATION) was “inactive; negative”.
For CC(=O)ON(C(C)=O)c1ccccc1C, the mutagenic call [4] was “inactive; negative”, the mutagenic call [5] was “inactive; negative” and the mutagenic call [6] was “inactive; negative”. For the same compound, the mutagenic call [7] was “inactive; negative”.
CNc1ccc2ncccc2c1N was tested, and the mutagenic call [8] was “inactive; negative”, the mutagenic call [9] was “inactive; negative” and the mutagenic call [10] was “inactive; negative”. The mutagenic call [11] was “inactive; negative”.
With Cc1[nH]ccc2c1[nH]c1cc(=O)ccc12 the mutagenic call (Test System: AMES SALMONELLA TYPHIMURIUM, Strain/Indicator: TA97, Metabolic Activation: NONE, Method: PREINCUBATION) was “active; positive”, the mutagenic call (Test System: AMES SALMONELLA TYPHIMURIUM, Strain/Indicator: TA97, Metabolic Activation: RAT, LIVER, S-9, AROCLOR 1254, Method: PREINCUBATION) was “inactive; negative” and the mutagenic call [8] was “inactive; negative”. The mutagenic call [9] was “inactive; negative”, the mutagenic call [10] was “inactive; negative” and the mutagenic call [11] was “inactive; negative”. The mutagenic call [12] was “inactive; negative” and the mutagenic call (Test System: AMES SALMONELLA TYPHIMURIUM, Strain/Indicator: TA102, Metabolic Activation: RAT, LIVER, S-9, AROCLOR 1254, Method: PREINCUBATION) was “inactive; negative”.
In the case of Nc1nc2c([nH]c(=O)n2[C@H]2C[C@H](O)[C@@H](CO)O2)c(=O)[nH]1, the mutagenic call [10] is reported as “inactive; negative”.
N[C@H](CSSC[C@@H](N)C(=O)O)C(=O)O was tested, and the mutagenic call (Test System: AMES SALMONELLA TYPHIMURIUM, Strain/Indicator: TA98, Metabolic Activation: RAT LIVER S-9, CHLOROPHENE, Method: STANDARD PLATE (COMPOUND HEATED AT 250 DEGREES CELSIUS FOR 20 MIN)) was “active; positive”.
C=C(C)CC(C)(C)C was tested, and the mutagenic call [8] was “inactive; negative”, the mutagenic call (Test System: AMES SALMONELLA TYPHIMURIUM, Strain/Indicator: TA98, Metabolic Activation: RAT, LIVER, S-9, PHENOBARBITAL AND BETA-NAPHTHOFLAVONE, Method: PREINCUBATION) was “inactive; negative” and the mutagenic call [10] was “inactive; negative”. The mutagenic call (Test System: AMES SALMONELLA TYPHIMURIUM, Strain/Indicator: TA100, Metabolic Activation: RAT, LIVER, S-9, PHENOBARBITAL AND BETA-NAPHTHOFLAVONE, Method: PREINCUBATION) was “inactive; negative”, the mutagenic call [12] was “inactive; negative” and the mutagenic call (Test System: AMES SALMONELLA TYPHIMURIUM, Strain/Indicator: TA102, Metabolic Activation: RAT, LIVER, S-9, PHENOBARBITAL AND BETA-NAPHTHOFLAVONE, Method: PREINCUBATION) was “inactive; negative”. For the same compound, the mutagenic call [1] was “inactive; negative”, the mutagenic call (Test System: AMES SALMONELLA TYPHIMURIUM, Strain/Indicator: TA104, Metabolic Activation: RAT, LIVER, S-9, PHENOBARBITAL AND BETA-NAPHTHOFLAVONE, Method: PREINCUBATION) was “inactive; negative” and the mutagenic call [2] was “inactive; negative”. For the same compound, the mutagenic call (Test System: AMES SALMONELLA TYPHIMURIUM, Strain/Indicator: TA1535, Metabolic Activation: RAT, LIVER, S-9, PHENOBARBITAL AND BETA-NAPHTHOFLAVONE, Method: PREINCUBATION) was “inactive; negative”, the mutagenic call [3] was “inactive; negative” and the mutagenic call (Test System: AMES SALMONELLA TYPHIMURIUM, Strain/Indicator: TA1537, Metabolic Activation: RAT, LIVER, S-9, PHENOBARBITAL AND BETA-NAPHTHOFLAVONE, Method: PREINCUBATION) was “inactive; negative”. The mutagenic call (Test System: E. COLI, Strain/Indicator: WP2UVRA/PKM101, Metabolic Activation: NONE, Method: PREINCUBATION) was “inactive; negative”, the mutagenic call (Test System: E. COLI, Strain/Indicator: WP2UVRA/PKM101, Metabolic Activation: RAT, LIVER, S-9, PHENOBARBITAL AND BETA-NAPHTHOFLAVONE, Method: PREINCUBATION) was “inactive; negative” and the mutagenic call (Test System: E. COLI, Strain/Indicator: WP2UVRA, Metabolic Activation: NONE, Method: PREINCUBATION) was “inactive; negative”. The mutagenic call (Test System: E. COLI, Strain/Indicator: WP2UVRA, Metabolic Activation: RAT, LIVER, S-9, PHENOBARBITAL AND BETA-NAPHTHOFLAVONE, Method: PREINCUBATION) was “inactive; negative”.
CC(C)(N=O)[N+](=O)[O-] was tested, and the mutagenic call [8] was “active; positive”, the mutagenic call (Test System: AMES SALMONELLA TYPHIMURIUM, Strain/Indicator: TA98, Metabolic Activation: RAT, LIVER, S-9, AROCLOR, Method: PREINCUBATION) was “inactive; negative” and the mutagenic call [10] was “inactive; negative”. The mutagenic call (Test System: AMES SALMONELLA TYPHIMURIUM, Strain/Indicator: TA100, Metabolic Activation: RAT, LIVER, S-9, AROCLOR, Method: PREINCUBATION) was “inactive; negative”, the mutagenic call [12] was “inactive; negative” and the mutagenic call (Test System: AMES SALMONELLA TYPHIMURIUM, Strain/Indicator: TA102, Metabolic Activation: RAT, LIVER, S-9, AROCLOR, Method: PREINCUBATION) was “inactive; negative”.
Cn1c2ccccc2c2ccc([N+](=O)[O-])cc21 was tested, and the mutagenic call [4] was “active; positive”, the mutagenic call (Test System: AMES SALMONELLA TYPHIMURIUM, Strain/Indicator: TA98, Metabolic Activation: RAT LIVER S-9, AROCLOR 1254, Method: STANDARD PLATE) was “active; positive” and the mutagenic call [6] was “active; positive”. For the same compound, the mutagenic call (Test System: AMES SALMONELLA TYPHIMURIUM, Strain/Indicator: TA100, Metabolic Activation: RAT LIVER S-9, AROCLOR 1254, Method: STANDARD PLATE) was “active; positive”.
With CC(=O)N[C@@H](CS/C(Cl)=C(\Cl)C(Cl)=C(Cl)Cl)C(=O)O the mutagenic call [10] was “inactive; negative”, the mutagenic call (Test System: AMES SALMONELLA TYPHIMURIUM, Strain/Indicator: TA100, Metabolic Activation: RAT, KIDNEY, CYTOSOL, Method: PREINCUBATION) was “active; positive” and the mutagenic call (Test System: AMES SALMONELLA TYPHIMURIUM, Strain/Indicator: TA100, Metabolic Activation: RAT, LIVER, S-9, AROCLOR 1254 (10%), Method: PREINCUBATION) was “active; positive”.
For O=S(=O)(O)OCc1c2ccccc2cc2c1ccc1ccccc12, the mutagenic call [8] was “active; positive”.
In the case of CC(=O)N(O)c1ccc(Br)cc1, the mutagenic call [4] is reported as “inactive; negative”, the mutagenic call [5] is reported as “inactive; negative” and the mutagenic call [6] is reported as “inactive; negative”. The mutagenic call [7] was “inactive; negative”.
